In US12637465B2, “Pharmaceutically acceptable salts of sepiapterin” (PTC Therapeutics MP, Inc., priority 2018, dated 2026):

What was measured:
Format in all cases: physicochemical
[1] = Kinetic solubility in water and Medisca Oral Mix (HPLC solubility, purity and pH of supernatant); settings: RT; for Purity (area %) of supernatant: for reference only; for Solubility: calculated using freebase, target conc. 7 mg/mL
Experimental: (§1) The kinetic solubility was evaluated for nicotinate, phosphate, L-tartrate, and fumarate salts and/or co-crystals of sepiapterin in water and […] Oral Mix. X-ray powder diffraction (XRPD) was performed for the residual solids to identify form change/disproportionation. Solids were suspended into the media with target conc. of 7 mg/mL (calculated by freebase).

[2] = Solid form stability study of salts and/or co-crystals at 25° C./60% RH and 40° C./75% RH; settings: for Underwent a form change during the stability testing: 1 and 2 weeks, 25° C./60% RH and 40° C./75% RH
Experimental: The stability of the prepared salts and/or co-crystals was analyzed after 1 and 2 weeks at 25° C. and 60% relative humidity and 40° C. and 75% relative humidity. […] None of the phosphate, tartrate, or nicotinate salts and/or co-crystals underwent a form change during the stability testing, and each of them retained greater than 97% purity over the two weeks of the study. In fact, both the tartrate and nicotinate both retained greater than 99% purity.

[3] = Form change/disproportionation of residual solids by XRPD after suspension in water or Medisca Oral Mix; settings: for Form change (residual solids, XRPD): RT; for Form of the residual solids in Medisca Oral Mix / Form of the residual solids in water: after 1 hour
Experimental: as §1, with “freebase). […] Oral Mix after 1 hour. […] Oral Mix.” for “freebase).”

[4] = Medisca Oral Mix, 1 hr, listed as L-tartrate salt and/or co-crystal
[5] = Medisca Oral Mix, 4 hr, listed as L-tartrate salt and/or co-crystal
[6] = Medisca Oral Mix, 24 hr, listed as L-tartrate salt and/or co-crystal
[7] = Water, 1 hr, listed as L-tartrate salt and/or co-crystal
[8] = Water, 4 hr, listed as L-tartrate salt and/or co-crystal
[9] = Water, 24 hr, listed as L-tartrate salt and/or co-crystal
[10] = Medisca Oral Mix, 1 hr, listed as nicotinate salt and/or co-crystal
[11] = Medisca Oral Mix, 4 hr, listed as nicotinate salt and/or co-crystal
[12] = Medisca Oral Mix, 24 hr, listed as nicotinate salt and/or co-crystal
[13] = Water, 1 hr, listed as nicotinate salt and/or co-crystal
[14] = Water, 4 hr, listed as nicotinate salt and/or co-crystal
[15] = Water, 24 hr, listed as nicotinate salt and/or co-crystal
[16] = Medisca Oral Mix, 1 hr, listed as fumarate salt and/or co-crystal
[17] = Medisca Oral Mix, 4 hr, listed as fumarate salt and/or co-crystal
[18] = Medisca Oral Mix, 24 hr, listed as fumarate salt and/or co-crystal
[19] = Water, 1 hr, listed as fumarate salt and/or co-crystal
[20] = Water, 4 hr, listed as fumarate salt and/or co-crystal
[21] = Water, 24 hr, listed as fumarate salt and/or co-crystal

C[C@H](O)C(=O)C1=Nc2c(nc(N)[nH]c2=O)NC1 [L-Tartrate, sepiapterin]
Observation ([1]; Medisca Oral Mix, 1 hr): Turbid | Purity (area %) of supernatant [1, 4]: 99.68 area % | pH [1, 4]: 3.3 | Observation ([1]; Medisca Oral Mix, 4 hr): Turbid | Solubility [1, 5]: 2500 µg/mL | Purity (area %) of supernatant [1, 5]: 99.54 area % | pH [1, 5]: 3.3 | Observation ([1]; Medisca Oral Mix, 24 hr): Turbid | Solubility [1, 6]: 3200 µg/mL | Purity (area %) of supernatant [1, 6]: 95.67 area % | pH [1, 6]: 3.3 | Observation ([1]; Water, 1 hr): Turbid | Purity (area %) of supernatant [1, 7]: 99.34 area % | pH [1, 7]: 2.5 | Observation ([1]; Water, 4 hr): Turbid | Purity (area %) of supernatant [1, 8]: 99.07 area % | pH [1, 8]: 2.5 | Observation ([1]; Water, 24 hr): Turbid | Purity (area %) of supernatant [1, 9]: 95.61 area % | pH [1, 9]: 2.5 | Stability compared with the other salts and/or co-crystals tested [2]: noticeably more stable than the others | Underwent a form change during the stability testing [2]: None | Form change ([2]; 1 week, 25° C./60% RH): No | Purity (Area %) ([2]; 1 week, 25° C./60% RH): 98.61 Area % | Purity vs. initial (%) ([2]; 1 week, 25° C./60% RH): 99.9% | Form change ([2]; 1 week, 40° C./75% RH): No | Purity (Area %) ([2]; 1 week, 40° C./75% RH): 99.06 Area % | Purity vs. initial (%) ([2]; 1 week, 40° C./75% RH): 99.3% | Form change ([2]; 2 weeks, 25° C./60% RH): No | Purity (Area %) ([2]; 2 weeks, 25° C./60% RH): 99.39 Area % | Purity vs. initial (%) ([2]; 2 weeks, 25° C./60% RH): 99.6% | Form change ([2]; 2 weeks, 40° C./75% RH): No | Purity (Area %) ([2]; 2 weeks, 40° C./75% RH): 99.00 Area % | Purity vs. initial (%) ([2]; 2 weeks, 40° C./75% RH): 99.3% | Purity (Area %) ([2]; Initial): 99.75 Area % | Form change (residual solids, XRPD) [3, 4]: Yes | Form change (residual solids, XRPD) [3, 5]: Yes | Form change (residual solids, XRPD) [3, 6]: Yes | Form of the residual solids in Medisca Oral Mix ([3]; Medisca Oral Mix): converted to freebase | Form change (residual solids, XRPD) [3, 7]: Yes | Form change (residual solids, XRPD) [3, 8]: Yes | Form change (residual solids, XRPD) [3, 9]: Yes | Form of the residual solids in water [3]: converted to freebase

C[C@H](O)C(=O)C1=Nc2c(nc(N)[nH]c2=O)NC1 [Nicotinate, sepiapterin]
Observation ([1]; Medisca Oral Mix, 1 hr): Turbid | Purity (area %) of supernatant [1, 10]: 99.76 area % | pH [1, 10]: 3.1 | Observation ([1]; Medisca Oral Mix, 4 hr): Turbid | Purity (area %) of supernatant [1, 11]: 99.60 area % | pH [1, 11]: 3.1 | Observation ([1]; Medisca Oral Mix, 24 hr): Turbid | Purity (area %) of supernatant [1, 12]: 97.00 area % | pH [1, 12]: 3.1 | Observation ([1]; Water, 1 hr): Turbid | Purity (area %) of supernatant [1, 13]: 98.97 area % | pH [1, 13]: 2.1 | Observation ([1]; Water, 4 hr): Turbid | Purity (area %) of supernatant [1, 14]: 99.04 area % | pH [1, 14]: 2.1 | Observation ([1]; Water, 24 hr): Turbid | Purity (area %) of supernatant [1, 15]: 96.54 area % | pH [1, 15]: 2.1 | Stability compared with the other salts and/or co-crystals tested [2]: noticeably more stable than the others | Underwent a form change during the stability testing [2]: None | Form change ([2]; 1 week, 25° C./60% RH): No | Purity (Area %) ([2]; 1 week, 25° C./60% RH): 97.43 Area % | Purity vs. initial (%) ([2]; 1 week, 25° C./60% RH): 100.3% | Form change ([2]; 1 week, 40° C./75% RH): No | Purity (Area %) ([2]; 1 week, 40° C./75% RH): 97.30 Area % | Purity vs. initial (%) ([2]; 1 week, 40° C./75% RH): 100.2% | Form change ([2]; 2 weeks, 25° C./60% RH): No | Purity (Area %) ([2]; 2 weeks, 25° C./60% RH): 97.45 Area % | Purity vs. initial (%) ([2]; 2 weeks, 25° C./60% RH): 100.3% | Form change ([2]; 2 weeks, 40° C./75% RH): No | Purity (Area %) ([2]; 2 weeks, 40° C./75% RH): 97.41 Area % | Purity vs. initial (%) ([2]; 2 weeks, 40° C./75% RH): 100.3% | Purity (Area %) ([2]; Initial): 97.16 Area % | Form change (residual solids, XRPD) [3, 10]: Yes | Form change (residual solids, XRPD) [3, 11]: Yes | Form change (residual solids, XRPD) [3, 12]: Yes | Form of the residual solids in Medisca Oral Mix ([3]; Medisca Oral Mix): converted to freebase | Form change (residual solids, XRPD) [3, 13]: Yes | Form change (residual solids, XRPD) [3, 14]: Yes | Form change (residual solids, XRPD) [3, 15]: Yes | Form of the residual solids in water [3]: converted to freebase

C[C@H](O)C(=O)C1=Nc2c(nc(N)[nH]c2=O)NC1 [Fumarate, sepiapterin]
Observation ([1]; Medisca Oral Mix, 1 hr): Turbid | Purity (area %) of supernatant [1, 16]: 99.74 area % | pH [1, 16]: 4.0 | Observation ([1]; Medisca Oral Mix, 4 hr): Turbid | Purity (area %) of supernatant [1, 17]: 99.60 area % | pH [1, 17]: 4.0 | Observation ([1]; Medisca Oral Mix, 24 hr): Turbid | Purity (area %) of supernatant [1, 18]: 96.54 area % | pH [1, 18]: 4.0 | Observation ([1]; Water, 1 hr): Turbid | Purity (area %) of supernatant [1, 19]: 98.39 area % | pH [1, 19]: 3.1 | Observation ([1]; Water, 4 hr): Turbid | Purity (area %) of supernatant [1, 20]: 98.19 area % | pH [1, 20]: 3.1 | Observation ([1]; Water, 24 hr): Turbid | Purity (area %) of supernatant [1, 21]: 95.43 area % | pH [1, 21]: 3.1 | Stability in the solid form stability study of Example 2 [2]: high stability | Form change ([2]; 1 week, 25° C./60% RH): No | Purity (Area %) ([2]; 1 week, 25° C./60% RH): 99.39 Area % | Purity vs. initial (%) ([2]; 1 week, 25° C./60% RH): 99.9% | Form change ([2]; 1 week, 40° C./75% RH): No | Purity (Area %) ([2]; 1 week, 40° C./75% RH): 99.15 Area % | Purity vs. initial (%) ([2]; 1 week, 40° C./75% RH): 99.7% | Purity (Area %) ([2]; 2 weeks, 25° C./60% RH): 99.25 Area % | Purity vs. initial (%) ([2]; 2 weeks, 25° C./60% RH): 99.7% | Purity (Area %) ([2]; 2 weeks, 40° C./75% RH): 98.98 Area % | Purity vs. initial (%) ([2]; 2 weeks, 40° C./75% RH): 99.5% | Purity (Area %) ([2]; Initial): 99.46 Area % | Disproportionation in the disproportionation study [3]: no evidence of disproportionation | Form change (residual solids, XRPD) [3, 16]: No ** | Form change (residual solids, XRPD) [3, 17]: No ** | Form change (residual solids, XRPD) [3, 18]: No ** | Form of the residual solids in Medisca Oral Mix ([3]; Medisca Oral Mix, listed as fumarate salt and/or co-crystal): crystallinity of residual solids decreased | Form change (residual solids, XRPD) [3, 19]: No | Form change (residual solids, XRPD) [3, 20]: No | Form change (residual solids, XRPD) [3, 21]: No | Form of the residual solids in water ([3]; listed as fumarate salt and/or co-crystal): no form change was observed
